Structures are written as SMILES. Active and inactive are the calls of the source.

A short description of experiment [1]: Luminescence Cell-Based Dose Retest to Confirm Inhibitors of Cancer Stem Cells. [Related pubchem assays (depositor defined):AID2717, AID2721]. The class given is functional. To be noted: Homo sapiens.
Experiment [2] deals with T1, Ubiquitin-conjugating enzyme E2 N (Homo sapiens, UniProt P61088).
T1 sequence (P61088 whole entry): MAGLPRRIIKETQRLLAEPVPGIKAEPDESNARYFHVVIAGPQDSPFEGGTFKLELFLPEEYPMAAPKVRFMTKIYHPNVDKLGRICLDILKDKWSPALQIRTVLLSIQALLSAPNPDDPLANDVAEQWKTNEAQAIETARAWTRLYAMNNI
The class given is functional.

Another experiment deals with T2, Protein skinhead-1 (Caenorhabditis elegans, UniProt P34707).
T2 sequence (P34707 whole entry): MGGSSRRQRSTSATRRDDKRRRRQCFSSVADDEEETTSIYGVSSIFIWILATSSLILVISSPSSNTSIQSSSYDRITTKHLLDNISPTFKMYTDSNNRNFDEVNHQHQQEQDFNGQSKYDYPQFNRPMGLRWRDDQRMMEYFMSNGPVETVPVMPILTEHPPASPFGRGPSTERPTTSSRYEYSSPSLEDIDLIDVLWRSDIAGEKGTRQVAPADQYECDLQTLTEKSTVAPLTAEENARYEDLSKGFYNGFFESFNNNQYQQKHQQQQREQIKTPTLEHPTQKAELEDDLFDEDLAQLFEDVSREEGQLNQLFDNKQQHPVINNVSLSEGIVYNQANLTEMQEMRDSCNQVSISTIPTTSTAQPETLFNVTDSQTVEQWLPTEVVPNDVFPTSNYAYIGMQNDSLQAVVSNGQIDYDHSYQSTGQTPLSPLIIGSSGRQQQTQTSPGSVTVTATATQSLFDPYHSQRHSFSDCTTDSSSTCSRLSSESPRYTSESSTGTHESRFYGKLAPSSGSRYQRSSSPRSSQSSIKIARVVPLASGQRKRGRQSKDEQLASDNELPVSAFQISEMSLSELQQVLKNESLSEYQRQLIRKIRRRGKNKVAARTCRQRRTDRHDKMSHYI
It counts as functional.

Another experiment has as its system INS1. Description: beta cell apoptosis inhibitors, cytokine rescue, dose response, luminescence, retest (AID 449756).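 Further: cell death triggered by IL-1 beta plus TNF-alpha plus IFN-gamma mixture; protective hits raise ATP signal compared with cytokine alone wells.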 The class given is functional, cell-based. To be noted: Rattus norvegicus.
A short description of experiment [3]: inhibitors of HIV Env-driven cell fusion, dose response, cherry-pick (AID 652057). The class given is functional, cell-based.
Experiment [4] in a line: ZM109 Env clade C HIV-1 fusion inhibitors, dose response, HeLa effector, CEM target cells, luciferase, cherry-pick (AID 652058). It counts as functional, cell-based.
Experiment [5] can be described thus: inhibitors of clade B AD8 Env fusion, dose response, cell-based, cherry-pick (AID 652062).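 Further: luciferase signal from cell-cell fusion driven by HIV-1 clade B AD8 Env; potency is for inhibitors of fusion seen as a drop in luminescence.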 The class given is functional.
The nature of experiment [6]: P. falciparum Dd2 growth inhibitors, dose response, SYBR Green, cherry-picked samples (AID 1159567). The class given is functional, cell-based.
Experiment [7] concerns the target T3, Heat shock factor protein 1 (Mus musculus, UniProt P38532).
T3 sequence (P38532 whole entry): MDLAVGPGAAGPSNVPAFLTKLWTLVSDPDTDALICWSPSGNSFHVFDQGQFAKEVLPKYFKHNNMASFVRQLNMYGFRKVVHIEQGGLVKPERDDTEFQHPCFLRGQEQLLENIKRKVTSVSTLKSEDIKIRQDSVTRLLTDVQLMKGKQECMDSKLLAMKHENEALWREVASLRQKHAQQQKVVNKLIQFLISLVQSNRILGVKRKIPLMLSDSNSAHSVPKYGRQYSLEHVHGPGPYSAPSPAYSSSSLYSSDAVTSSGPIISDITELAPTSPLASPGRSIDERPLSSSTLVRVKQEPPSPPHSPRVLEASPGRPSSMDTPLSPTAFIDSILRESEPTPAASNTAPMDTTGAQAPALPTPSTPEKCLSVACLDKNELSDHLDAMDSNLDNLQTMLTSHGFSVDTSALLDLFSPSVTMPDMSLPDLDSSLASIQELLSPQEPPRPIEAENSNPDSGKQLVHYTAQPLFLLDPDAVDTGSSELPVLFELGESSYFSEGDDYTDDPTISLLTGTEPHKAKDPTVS
Description: HSF1 potentiators in luciferase reporter cells, confirmation, cell-based, NIH3T3, luminescence, dose retest (AID 435004).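 Further: stress induced by proteasome inhibitor MG132 added 30 min after compound; luciferase reporter driven by HSF1 response element in NIH3T3 cells; actives raise luminescence as potentiators of the MG132 stress response.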 The class given is functional. For orientation: In a reporter assay the amount or activity of a reporter protein is the signal.

Experiment [8] concerns the target T4, Fatty acid synthase (Homo sapiens, UniProt P49327). Description: FAS thioesterase domain inhibitors, dose response, biochemical, endpoint fluorescence intensity, uHTS hits (AID 624327).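 Further: fluorescence from hydrolysis of an O-methyl fluorescein acyl ester substrate by the enzyme.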 The class given is functional.
For experiment [9], the target named is T4, Fatty acid synthase. Description: FAS thioesterase domain inhibitors, dose response, biochemical, kinetic fluorescence intensity (AID 624326).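 Further: rate of fluorescence rise from hydrolysis of a fluorogenic O-methyl fluorescein ester substrate.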 It counts as functional.
A short description of experiment [10]: Shn3 3'UTR reporter inhibitors, dose response, cell-based, Clone20 osteoblasts, firefly luciferase, cherry-picked (AID 624132).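 Further: firefly luciferase luminescence from reporter carrying the Shn3 3'UTR in osteoblasts.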 It counts as functional.
The nature of experiment [11]: control 3'UTR Renilla luciferase suppression, dose response, counter-screen for Shn3 inhibitor project, cell-based, Clone20-Shn3RL, cherry-picked (AID 624133). It counts as functional. For orientation: Counterscreens check selectivity or assay interference.

T4 sequence (P49327 whole entry, the tested form may be a part): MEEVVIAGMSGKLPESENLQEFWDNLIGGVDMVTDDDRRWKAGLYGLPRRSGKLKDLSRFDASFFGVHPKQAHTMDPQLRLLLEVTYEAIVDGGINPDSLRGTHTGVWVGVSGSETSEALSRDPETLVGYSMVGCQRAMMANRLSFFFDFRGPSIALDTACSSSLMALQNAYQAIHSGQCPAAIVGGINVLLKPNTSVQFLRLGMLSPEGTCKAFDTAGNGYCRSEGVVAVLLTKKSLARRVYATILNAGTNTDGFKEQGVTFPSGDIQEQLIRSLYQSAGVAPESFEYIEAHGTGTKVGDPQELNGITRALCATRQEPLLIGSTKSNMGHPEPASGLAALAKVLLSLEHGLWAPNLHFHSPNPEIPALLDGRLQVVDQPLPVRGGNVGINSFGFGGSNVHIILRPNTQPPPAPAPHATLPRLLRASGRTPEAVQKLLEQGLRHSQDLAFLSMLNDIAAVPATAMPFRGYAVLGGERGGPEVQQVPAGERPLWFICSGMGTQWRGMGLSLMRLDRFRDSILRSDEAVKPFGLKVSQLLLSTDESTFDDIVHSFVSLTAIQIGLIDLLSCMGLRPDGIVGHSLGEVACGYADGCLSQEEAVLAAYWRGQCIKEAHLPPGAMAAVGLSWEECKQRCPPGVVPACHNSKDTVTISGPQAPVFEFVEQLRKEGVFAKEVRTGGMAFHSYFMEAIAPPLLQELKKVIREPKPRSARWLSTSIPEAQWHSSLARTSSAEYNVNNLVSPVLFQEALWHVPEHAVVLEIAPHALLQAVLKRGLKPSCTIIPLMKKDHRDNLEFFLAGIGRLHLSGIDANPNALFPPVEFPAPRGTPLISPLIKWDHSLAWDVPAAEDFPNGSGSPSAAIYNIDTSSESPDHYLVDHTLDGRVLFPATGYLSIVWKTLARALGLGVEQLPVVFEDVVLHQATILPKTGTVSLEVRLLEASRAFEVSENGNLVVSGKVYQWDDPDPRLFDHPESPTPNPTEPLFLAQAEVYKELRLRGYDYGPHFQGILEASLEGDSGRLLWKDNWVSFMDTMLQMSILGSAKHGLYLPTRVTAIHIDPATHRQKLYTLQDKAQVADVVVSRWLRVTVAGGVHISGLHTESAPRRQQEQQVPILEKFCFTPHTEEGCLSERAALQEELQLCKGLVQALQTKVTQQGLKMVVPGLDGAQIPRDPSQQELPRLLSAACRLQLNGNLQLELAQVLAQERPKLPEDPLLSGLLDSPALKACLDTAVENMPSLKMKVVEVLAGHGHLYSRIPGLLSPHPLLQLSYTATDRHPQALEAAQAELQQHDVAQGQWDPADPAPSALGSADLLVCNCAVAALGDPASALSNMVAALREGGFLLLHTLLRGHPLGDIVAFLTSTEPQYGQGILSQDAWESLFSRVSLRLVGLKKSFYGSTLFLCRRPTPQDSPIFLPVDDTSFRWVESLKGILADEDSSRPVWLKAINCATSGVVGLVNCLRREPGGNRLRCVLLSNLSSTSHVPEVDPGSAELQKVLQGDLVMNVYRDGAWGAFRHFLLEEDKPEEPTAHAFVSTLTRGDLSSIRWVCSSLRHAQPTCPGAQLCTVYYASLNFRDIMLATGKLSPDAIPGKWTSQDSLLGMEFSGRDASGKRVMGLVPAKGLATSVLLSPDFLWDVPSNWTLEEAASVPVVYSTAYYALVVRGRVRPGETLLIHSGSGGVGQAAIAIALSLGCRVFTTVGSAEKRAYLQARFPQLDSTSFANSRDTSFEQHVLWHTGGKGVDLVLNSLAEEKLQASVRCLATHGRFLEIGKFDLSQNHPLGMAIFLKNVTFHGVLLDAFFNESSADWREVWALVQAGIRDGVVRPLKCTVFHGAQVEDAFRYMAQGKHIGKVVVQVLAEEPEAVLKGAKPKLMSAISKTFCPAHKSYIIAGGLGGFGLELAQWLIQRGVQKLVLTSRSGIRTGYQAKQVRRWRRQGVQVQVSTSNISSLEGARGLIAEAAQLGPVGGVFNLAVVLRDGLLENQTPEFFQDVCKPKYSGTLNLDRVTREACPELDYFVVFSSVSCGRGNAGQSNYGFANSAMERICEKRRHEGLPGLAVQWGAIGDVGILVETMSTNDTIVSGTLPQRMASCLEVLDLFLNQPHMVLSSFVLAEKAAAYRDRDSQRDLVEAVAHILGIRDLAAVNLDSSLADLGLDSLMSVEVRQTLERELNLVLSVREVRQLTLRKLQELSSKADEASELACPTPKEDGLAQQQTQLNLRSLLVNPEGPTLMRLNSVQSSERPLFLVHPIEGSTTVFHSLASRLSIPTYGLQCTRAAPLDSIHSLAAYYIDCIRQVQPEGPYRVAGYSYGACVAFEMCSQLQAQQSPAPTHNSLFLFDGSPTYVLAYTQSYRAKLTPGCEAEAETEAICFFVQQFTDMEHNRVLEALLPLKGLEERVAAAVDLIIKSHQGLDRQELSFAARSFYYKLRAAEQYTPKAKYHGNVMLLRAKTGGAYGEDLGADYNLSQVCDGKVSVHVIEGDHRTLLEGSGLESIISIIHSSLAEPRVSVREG

On to `COc1ccccc1-c1oc2ccccc2c1C#CC1(N)CCCCC1`, for which the AC50 (as a rule, the concentration at which the activity in the assay is half-maximal) in experiment [1] was 5.52 µM (active). The IC50 (commonly the midpoint of a concentration-inhibition curve) in [2] was > 20 µM (inactive).

For the molecule `Cc1cc(N2CCOCC2)nc2ccc(NC(=O)C3CCC(C)CC3)cc12` (centres undefined), on Protein skinhead-1, the IC50 was > 100 µM (inactive).

For the molecule `O=C(CSc1nnc(COc2ccc(Cl)cc2)o1)NC1CC2CCC1C2` (centres undefined), the IC50 on Protein skinhead-1 is > 100 µM (inactive).

As to `CC(=O)c1ccc(NC(S)=NCc2cccnc2)cc1`, the AC50 in the experiment on INS1 is 5.94 µM (active).

For the molecule `COc1ccc(-c2cc(-c3cccs3)nc(OC)c2C#N)cc1OC`, in experiment [2], the IC50 is > 20 µM (inactive).

In the case of `C=CCN1C(=O)C2(C(C(=O)OCC)=C(N)Oc3ccccc32)C2=C1CCCC2=O` (centres undefined), the IC50 at Protein skinhead-1 is > 100 µM (inactive).

On to `O=C(CCN1CCCCCC1)Nc1ccccc1F`, for which the IC50 on Protein skinhead-1 was > 100 µM (inactive).

`C[C@H](CO)N1C[C@H](C)[C@H](CN(C)S(=O)(=O)c2cccs2)Oc2ccc(NC(=O)Nc3ccccc3)cc2CC1=O`: the AC50 was 0.395 µM (active) in experiment [3], 0.579 µM (active) in experiment [4] and 1.34 µM (active) in [5].

On to `c1ccc2c(C[C@@H]3CNCCN3CCC34CC5CC(CC(C5)C3)C4)cccc2c1`, for which the IC50 in experiment [2] is > 20 µM (inactive).

As for `Cc1ccc(CSc2nnc(-c3ccco3)o2)cc1`, at Protein skinhead-1, the IC50 was 22 µM (active).

On to `C=C1CCC[C@]2(C)C[C@H]3OC(=O)C(CNCCN(C)C)[C@H]3CC12` (some centres undefined), for which, at Protein skinhead-1, the IC50 is > 100 µM (inactive).

Take `CO[C@@H]1CN(C)C(=O)c2ccc(NC(=O)c3ccc(F)cc3)cc2OC[C@@H](C)N(C(=O)c2ccc(F)cc2)C[C@@H]1C`: the AC50 in [6] was 4.29 µM (active).

For `CC(=O)Nc1cccc(OCC(=O)NS(=O)(=O)c2ccc(Cl)cc2)c1`, the IC50 on Protein skinhead-1 is > 100 µM (inactive).

Turning to `Cc1ccc(C2CC(c3cccc(Br)c3)n3nc(N)nc3N2)cc1` (centres undefined), the AC50 in the experiment on INS1 is 34.1 µM (active).

In the case of `CCCNC(=O)N1[C@H](CO)[C@H](c2ccc(-c3ccc(C#N)cc3)cc2)[C@@H]1CNC`, the half-maximal activity concentration (AC50) in experiment [6] was 11.5 µM (active).

`COc1ccc(C(CCN2CCCC2)c2c(OC)cc(OC)c3c(-c4ccccc4)cc(=O)oc23)cc1` (centres undefined): the IC50 in [2] is > 20 µM (inactive).

Turning to `CO[C@H]1CN(C)C(=O)c2ccc(NC(=O)C3CCC3)cc2OC[C@H](C)N(CC2CCCCC2)C[C@@H]1C`, the figures for the AC50 in [3], in experiment [4] and in experiment [5] were 0.592 µM (active), 1.25 µM (active) and 1.83 µM (active), respectively.

For the molecule `O=C(c1ccccc1F)N1C[C@H]2[C@@H](c3ccccc31)[C@@H](CO)N2C(=O)c1ccc(F)cc1`, the AC50 in [6] is 35.2 µM (active).

Take `O=C(Nc1ccc(Nc2ccccc2)cc1)c1cc([N+](=O)[O-])ccc1Cl`: the half-maximal activity concentration (AC50) in experiment [1] was 9.07 µM (active). In addition, the EC50 (usually the concentration that produces a half-maximal response) in experiment [7] is 5.63 µM (active). Also, the IC50 on Fatty acid synthase [8] was 11.1 µM (active); on Fatty acid synthase [9] it was 14 µM (active).

On to `COC(=O)[C@H](CCSC)NC(=O)Nc1cccc(C)c1C`, for which the EC50 in experiment [7] is > 260 µM (inactive).

On to `C/C=C/c1ccc2c(c1)[C@H]1[C@H](CCN1S(=O)(=O)c1cccc(F)c1)[C@@H](CO)N2`, for which, in experiment [6], the AC50 was 4.13 µM (active).

`Cc1sc2ncnc(N3CCN(S(=O)(=O)c4ccccc4)CC3)c2c1C`: the AC50 in the experiment on INS1 is 4.3 µM (active); in [10] it was 2.3 µM (active); in experiment [11], 3.43 µM (active).

Regarding `Cc1cccc(C)c1NC(=O)N1CCN(c2nc3ccccc3s2)CC1`, the AC50 was 1.05 µM (active) in experiment [4] and 10 µM (active) in [5].

Consider `O=c1c2ccccc2ccc2ccccc12`, for which the IC50 at Protein skinhead-1 was 21.3 µM (active).

For `[O-][S+](Cc1cc(Sc2ccccc2)nc(-c2ccccc2)n1)c1ccccc1` (centres undefined), the EC50 in experiment [7] was > 260 µM (inactive).

As for `COc1ccc2cc(N3CCCC3=O)ccc2c1`, at Protein skinhead-1, the IC50 was > 100 µM (inactive).

With `NC1=NC[C@@H](Cc2ccc(O)cc2)N1CCc1cc(C(F)(F)F)cc(C(F)(F)F)c1`, in experiment [2], the IC50 is > 20 µM (inactive).

In the case of `COc1ccc(-c2[nH]ncc2CN2CCN(C3CCCCC3)C(=O)C2)cc1F`, in [7], the EC50 was 216 µM (active).

These data come from ChEMBL document CHEMBL1201862, “PubChem BioAssay data set” (2004).
